# Laboratory results taken from PMC7235712, “Biological Activities of Essential Oils from Leaves of Paramignya trimera (Oliv.) Guillaum and Limnocitrus littoralis (Miq.) Swingle” (Antibiotics, 2020).
# Key:
# YFV = experiment: microbe, parasite or virus in culture; assay type: cell-based; conditions: Yellow fever virus, BHK, read-out: EC50 YFV
# in vitro [1] = conditions: cattle (Bos taurus)
# BVDV = experiment: microbe, parasite or virus in culture; assay type: cell-based, bovine viral diarrhoea virus; conditions: Bovine viral diarrhea virus isolates and strains, MDBK, in Bos taurus, read-out: EC50 BVDV
# in vitro [2] = conditions: Syrian hamster (Mesocricetus auratus)
# in vitro [3] = conditions: African green monkey (Cercopithecus aethiops)
# RSV = experiment: Plaque reduction in Vero-76 monolayers, RSV; assay type: cell-based; conditions: human respiratory syncytial virus, reference compound
# HSV-1 = experiment: Plaque reduction in Vero-76 monolayers, HSV-1; assay type: cell-based, human herpes virus 1; conditions: Human alphaherpesvirus 1, reference compound
# CV-B4 = experiment: Plaque reduction in Vero-76 monolayers, CV-B4; assay type: cell-based, human enterovirus B (coxsackie virus B4); conditions: Enterovirus B, CVB4, reference compound
# Sb-1 = experiment: microbe, parasite or virus in culture; assay type: cell-based, human enterovirus C (polio virus type-1); conditions: Enterovirus C, Vero 76, read-out: EC50 Sb-1
# S. aureus = conditions: β-caryophyllene from Aquilaria crassna essential oil; cited from earlier work
# Reo-1 = experiment: microbe, parasite or virus in culture; assay type: cell-based, reovirus type-1; conditions: Reovirus sp., BHK, read-out: EC50 Reo-1
# in vitro [4] = conditions: human
# HIV-1IIIB = experiment: microbe, parasite or virus in culture; assay type: cell-based, human immunodeficiency virus type-1; conditions: Human immunodeficiency virus 1, MT4, read-out: EC50 HIV-1IIIB
smiles,measurement,setting,value
"C[C@@]1(O)[C@H](O)[C@@H](CO)O[C@H]1n1cnc2c(=O)[nH]c(N)nc21 [RC2, 2′-C-methylguanosine]",EC50,YFV,1.4 ± 0.2 µM
same,CC50,in vitro [1],> 100 µM
same,EC50,BVDV,1.7 ± 0.3 µM
same,CC50,in vitro [2],80 µM
"O=c1cnn([C@@H]2O[C@H](CO)[C@@H](O)[C@H]2O)c(=O)[nH]1 [RC4, 6-aza-uridine]",CC50,in vitro [3],≥ 14 µM
same,EC50,RSV,2 ± 0.2 µM
"COc1c(C)c2c(c(O)c1C/C=C(\C)CCC(=O)O)C(=O)OC2 [RC6, Mycophenolic acid]",CC50,in vitro [3],> 100 µM
"Nc1nc2c(ncn2COCCO)c(=O)[nH]1 [RC5, Acycloguanosine]",CC50,in vitro [3],> 100 µM
same,EC50,HSV-1,3 ± 0.1 µM
"Cc1cc(CCCOc2c(C)cc(-c3noc(C(F)(F)F)n3)cc2C)on1 [RC3, Pleconaril]",CC50,in vitro [3],> 100 µM
same,EC50,CV-B4,2 ± 0.5 µM
same,EC50,Sb-1,2 µM
C=C1CC/C=C(\C)CC[C@@H]2[C@@H]1CC2(C)C [β-caryophyllene],MIC,S. aureus,3 ± 0.4 µM
"C[C@@]1(O)[C@H](O)[C@@H](CO)O[C@H]1n1ccc(N)nc1=O [RC7, 2′-C-methylcytidine]",EC50,Reo-1,17 µM
same,CC50,in vitro [2],> 100 µM
"O=C1Nc2ccc(Cl)cc2[C@@](C#CC2CC2)(C(F)(F)F)O1 [RC1, Efavirenz]",CC50,in vitro [4],40 µM
same,EC50,HIV-1IIIB,0.003 ± 0.0003 µM
